Literature values, collected in patent US20090068264A1, “Clinical Applications of Tetrahydrobiopterin, Lipoic Acid and Their Salts and Methods of Preparing Tetrahydrobiopterin Bis-Lipoate” (ChronoRX LLC, priority 2005, published 2009).

System: cerebral ischemia-reperfusion
Details: animal studies of cerebral ischemia; after LA pretreatment; reduced from 78% without pretreatment

SMILES: O=C(O)CCCCC1CCSS1 (stereo not shown) [LA, 1,2-dithiolane-3-pentanoic acid]
- mortality rate during 24 hours of reperfusion: 26%
